Results published in patent publication US6559125B1, “Polyamide-alkylator conjugates and related products and method” (priority 2000, dated 2003).

What was measured:
[1] = water, pH 7.5, 37° C.; cited from earlier work
DNA = settings: from previous reports; cited from earlier work
[2] = system: match binding sites (5′-WGCWGCW-3′) on a 241 bp restriction fragment derived from the HIV-1 promoter region; assay: Quantitative DNase I footprint titration; settings: for equilibrium association constant Ka: 22° C., pH 7.0
Method: Jones, K. A. & Peterlin, B. M. (1994), Annual Review of Biochemistry 63, 717-743. Left, storage phosphor autodiograms of 8% denaturing polyacrylamide gels used to separate the fragments generated by DNase I digestion. All reactions contained 20,000 cpm restriction fragment, 10 mM Tris.HCl (pH 7.0), 10 mM KCl, 10 MM MgCl2 and 5 mM CaCl and were performed at 22° C. Lane 1, intact DNA; lane 2, A-specific reaction; lane 3, G-specific reaction; lane 4, DNase I standard; lanes 5-17, 1 pM, 2 pM, 5 pM, 10 pM, 20 pM, 50 pM, 100 pM, 200 pM, 500 pM, 1 nM, 2 nM, 5 nM, 10 nM, respectively. The 5′-AGCTGCT-3′ (A), 5′-TGCAGCA-3′ (B), and 5′-TGCTGCT-3′ (E) match sites are shown in boxes on the right side of the autoradiogram (SEQ ID NO:4).
FIG. 5(b) depicts data from quantitative DNase I footprint titration experiments for ImPy-β-ImPy-(R)^CHL(OH)γ-ImPy-βImPy-β-Dp (3) binding to the 5′-AGCTGCT-3′ (A) and 5′-TGCAGCA-3′ sites (B). θnorm points were obtained using storage phosphor autoradiography and processed as described in the experimental section The data for the binding of 3 to 5′-AGCTGCT-3′ is indicated by red circles and binding to 5′-TGCAGCA-3′ by blue circles. The solid curves are best-fit Langmuir binding titration isotherms obtained from a nonlinear least-squares algorithm eq 2 (n=1).
All reactions were executed in a total volume of 400 μl. […]
Data from the footprint titration gels were obtained using a Molecular Dynamics 400S PhosphorImager followed by quantitation using ImageQuant software (Molecular Dynamics). […] The apparent fractional occupancy (θapp) of the sites were calculated using the equation: [formula] […]
where [L]tot is the total polyamide concentration, Ka is the equilibrium association constant, and θmin and θmax are the experimentally determined site saturation values when the site is unoccupied or saturated, respectively. […]

[3] = system: match binding sites (5′-WGCWGCW-3′) on a 241 bp restriction fragment derived from the HIV-1 promoter region; settings: sequence 5′-WGCWGCW-3′ in the HIV promoter; literature value; cited from earlier work
HIV = settings: cell culture; cited from earlier work

**Q.** With `O=C(O)CCCc1ccc(N(CCCl)CCCl)cc1` [chlorambucil, 4-[bis(2-chloroethyl)amino]benzene butanoic acid] as the molecule, how does the “half life for hydrolysis of the bis(dichloroethylamino)benzene moiety” value [1] read?
**A.** approximately 1.3 hours

**Q.** With “ImImPyPy-(R)^H^2^Nγ-ImPyPyPy-β-Dp [polyamide 1′]” as the molecule, how does the binding affinity (DNA) read?
**A.** subnanomolar

**Q.** What does the source list for “ImPy-β-ImPy-(R)^CHL(OH)γ-ImPy-β-ImPy-β-Dp [compound 3]”?
**A.** equilibrium association constant Ka ([2]; match site 5′-AGCTGCT-3′): 1.6±0.7×10^10 M^−1; equilibrium association constant Ka ([2]; match site 5′-TGCAGCA-3′): 1.3±0.7×10^10 M^−1; affinities for double base pair mismatch sites, fold lower than for the match sites ([2]; mismatch sites 5′-TGTCGCC-3′ and 5′-AGCAGCTC-3′): > 100 fold

**Q.** With “ImPy-β-ImPy-γ-ImPy-β-ImPy-β-Dp [polyamide 1]” as the molecule, how does the “binding affinity Ka of unsubstituted polyamide” value [3] read?
**A.** 2e+10 M⁻¹

**Q.** What about the “inhibition of HIV replication” value (HIV) of the same molecule?
**A.** inhbit HIV replication
